Source: US10603320B2, “Compounds useful for inhibiting ROR-gamma-t” (Eli Lilly and Company, priority 2017, dated 2020)

Tests used:
[1] = target: human RAR-related orphan receptor beta (hRORb) (Homo sapiens (Human), UniProt Q92753); test: RORb receptor-ligand competition binding assay; settings: His-tagged hRORb, [3H]-labelled isoxazole benzoic acid ligand
[2] = target: human RAR-related orphan receptor gamma (hRORg) (Homo sapiens (Human), UniProt P51449); test: RORg receptor-ligand competition binding assay; settings: His-tagged hRORg, [3H]-25-hydroxycholesterol; mean ± standard deviation
[3] = target: human RORg ligand binding domain fused to yeast GAL4 DNA binding domain (Homo sapiens (Human), UniProt P51449); test: HEK293 RORg GAL4 Receptor-Reporter Assay; assay type: cell-based; settings: HEK293 cells, RORg-GAL4/pGL4.31 luciferase reporter, 18 hours; mean ± standard deviation; read-out: hIC50
Procedure: As an indicator of inverse agonist activity, an RAR-related orphan receptor gamma (RORg) receptor-reporter assay (RORg-GAL4/pGL4.31) is performed in HEK293 cells. HEK293 cells are co-transfected using Fugene™ reagent. A reporter plasmid containing a GAL4 binding domain and a minimal adenoviral promoter upstream of a firefly luciferase gene is co-transfected with a plasmid constitutively expressing a human RORg ligand binding domain fused to yeast GAL4 DNA binding domain. Cells are transfected in T150 cm^2 flasks in MEM media without FBS. After 18 hours incubation, transfected cells are trypsinized, plated in 96-well microtiter plates in 3:1 DMEM-F12 media containing 10% FBS, incubated for 4 hours and then exposed to various concentrations of test compounds ranging from about 0.05 nM to 10 μM. After 18 hours of incubations with compounds, cells are lysed and luciferase activity is quantified using standard techniques. Data is fit to a 4 parameter-fit logistics to determine IC50 values.

IL-17 secretion in PBMC = test: PBMC IL-17 Secretion ELISA; assay type: cell-based; settings: Homo sapiens; anti-CD3/anti-CD28/IL-23 stimulated PBMC, 48 hours; mean ± standard deviation; read-out: hPBMC IL-17 ELISA (EC50)
Procedure: (§1) PBMC's are isolated from whole blood buffy coats by first combining fresh buffy coats with equal volumes of phosphate buffered saline. Thirty five mL of PBS/buffy coat solution are then gently overlaid onto 15 mL of Ficoll in 50 mL conical tubes. Following centrifugation for 30 minutes at 500×g (with slow acceleration and deceleration) the top layer of plasma is discarded and the layer of cells along the Ficoll interface is collected and pooled. Each 250 mL tube is filled to the top with room temperature RPMI-1640 media. Tubes are spun for 10 minutes at 500×G (with slow acceleration and deceleration), the media is removed by aspiration, and the wash step is repeated. Cells are resuspended in ice cold Recovery Cell Culture Freezing Medium from Life Technologies (Catalog number 12648-010) on ice. The cell concentration is adjusted to 66.7 million cells/mL. Cell are slow frozen at −1° C./minute in vials with 100 million cells and stored in liquid nitrogen.
PBMC are brought out of thaw by resuspending with 1 mL of complete media (RPMI-1640 containing 30 mM HEPES, 100 units/mL penicillin, 100 μg/mL streptomycin, 3.25 mM L-Glutamine, 0.2 μM beta-mercaptoethanol, and 10% FBS) followed by the drop wise addition of 2 mL, 4 mL, 8 mL, and 16 mL of complete media with gentle swirling. Cells are spun down for 5 minutes and the cell pellet is resuspended in complete media. Clumps of cells are broken up by running the cell solution through a 23 gauge syringe needle and a […] cell strainer. One hundred thousand cells per well are added to 384 well polystyrene tissue culture treated flat bottomed plates in a total of 30 μL. […]
Following the incubation period the plates are spun at 200×g for five minutes. […] Absorbance at 492 nm is measured with the Envision multi-label plate reader. […] IC50's for inhibition of IL-17 secretion is calculated based on converted values using a standard 4-parameter fit with maximum inhibition determined from the average values of wells with no added stimulants nor compounds and minimum inhibition from the average values of wells with stimulants alone and no added compound.

PBMC = test: cells; assay type: cell-based; settings: Homo sapiens, 48 h, read-out: Cell TiterGlo Viability (EC50)
Procedure: as §1, with “[…].” for “The cell concentration is adjusted to 66.7 million cells/mL. Cell are slow frozen at −1° C./minute in vials with 100 million cells and stored in liquid nitrogen.”
PBMC are brought out of thaw by resuspending with 1 mL of complete media (RPMI-1640 containing 30 mM HEPES, 100 units/mL penicillin, 100 μg/mL streptomycin, 3.25 mM L-Glutamine, 0.2 μM beta-mercaptoethanol, and 10% FBS) followed by the drop wise addition of 2 mL, 4 mL, 8 mL, and 16 mL of complete media with gentle swirling. Cells are spun down for 5 minutes and the cell pellet is resuspended in complete media. Clumps of cells are broken up by running the cell solution through a 23 gauge syringe needle and a 40 μM cell strainer. […].
Equal volumes of Cell TITERGLO® cell viability testing reagent (Promega Cat #G7573) are added to the cells remaining in the plates, and following a fifteen minute incubation with gentle shaking at room temperature luminescence is measured with the Envision multi-label plate reader. Percent cell death is calculated by setting 100% activity (cell death) to zero luminescence units and minimum activity (max number of viable cells) as the average luminescence units of wells containing stimulants alone and no added compound. IC50's are calculated using a standard four parameter fit.

[4] = target: human RAR-related orphan receptor alpha (hRORa) (Homo sapiens (Human), UniProt P35398); test: RORa receptor-ligand competition binding assay; settings: His-tagged hRORa, [3H]-25-hydroxycholesterol; mean ± standard deviation
Chain of human RAR-related orphan receptor alpha (hRORa) (P35398 whole entry): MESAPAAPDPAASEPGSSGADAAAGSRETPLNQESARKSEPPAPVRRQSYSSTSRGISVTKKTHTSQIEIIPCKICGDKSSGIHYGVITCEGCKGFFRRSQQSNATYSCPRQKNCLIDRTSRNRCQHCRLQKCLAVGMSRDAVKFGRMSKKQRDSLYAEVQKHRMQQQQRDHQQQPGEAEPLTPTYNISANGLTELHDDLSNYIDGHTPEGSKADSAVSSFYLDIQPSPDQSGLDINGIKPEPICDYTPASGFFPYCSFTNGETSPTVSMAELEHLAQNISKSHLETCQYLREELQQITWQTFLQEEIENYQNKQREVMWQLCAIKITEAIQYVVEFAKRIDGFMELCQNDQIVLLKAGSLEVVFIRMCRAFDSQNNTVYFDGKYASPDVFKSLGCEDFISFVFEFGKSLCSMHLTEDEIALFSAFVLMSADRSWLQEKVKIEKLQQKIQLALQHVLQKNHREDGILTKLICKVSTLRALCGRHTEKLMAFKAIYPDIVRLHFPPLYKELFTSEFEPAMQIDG

Chain of human RAR-related orphan receptor gamma (hRORg) (P51449 whole entry, the tested form may be a part): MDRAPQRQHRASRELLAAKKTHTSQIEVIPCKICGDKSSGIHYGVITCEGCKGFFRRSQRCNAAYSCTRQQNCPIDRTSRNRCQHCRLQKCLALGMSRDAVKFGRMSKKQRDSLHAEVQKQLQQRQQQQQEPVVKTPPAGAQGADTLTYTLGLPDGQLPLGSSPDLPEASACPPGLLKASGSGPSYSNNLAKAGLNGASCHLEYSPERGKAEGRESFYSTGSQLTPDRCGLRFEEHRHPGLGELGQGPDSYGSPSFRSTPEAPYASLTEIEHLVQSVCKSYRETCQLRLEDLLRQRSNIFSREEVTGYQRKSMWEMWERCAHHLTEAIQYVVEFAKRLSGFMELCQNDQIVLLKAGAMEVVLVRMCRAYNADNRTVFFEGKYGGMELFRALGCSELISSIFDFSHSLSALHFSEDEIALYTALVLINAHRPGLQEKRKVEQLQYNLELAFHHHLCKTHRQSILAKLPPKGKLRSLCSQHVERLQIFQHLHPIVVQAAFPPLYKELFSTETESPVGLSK
Chain of human RAR-related orphan receptor beta (hRORb) (Q92753 whole entry): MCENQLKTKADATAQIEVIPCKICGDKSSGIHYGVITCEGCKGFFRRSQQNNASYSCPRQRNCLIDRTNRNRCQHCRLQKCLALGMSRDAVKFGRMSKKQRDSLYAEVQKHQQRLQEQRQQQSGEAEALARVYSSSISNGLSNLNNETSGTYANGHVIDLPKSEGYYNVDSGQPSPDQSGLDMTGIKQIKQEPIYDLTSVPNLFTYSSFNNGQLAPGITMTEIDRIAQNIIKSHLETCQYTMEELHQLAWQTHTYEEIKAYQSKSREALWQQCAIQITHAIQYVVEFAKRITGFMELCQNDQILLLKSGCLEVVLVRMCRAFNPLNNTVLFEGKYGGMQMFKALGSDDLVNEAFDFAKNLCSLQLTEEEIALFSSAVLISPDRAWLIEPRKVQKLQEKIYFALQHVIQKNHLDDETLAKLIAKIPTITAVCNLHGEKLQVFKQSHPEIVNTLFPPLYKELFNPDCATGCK
Chain of human RORg ligand binding domain fused to yeast GAL4 DNA binding domain (P51449 269-508): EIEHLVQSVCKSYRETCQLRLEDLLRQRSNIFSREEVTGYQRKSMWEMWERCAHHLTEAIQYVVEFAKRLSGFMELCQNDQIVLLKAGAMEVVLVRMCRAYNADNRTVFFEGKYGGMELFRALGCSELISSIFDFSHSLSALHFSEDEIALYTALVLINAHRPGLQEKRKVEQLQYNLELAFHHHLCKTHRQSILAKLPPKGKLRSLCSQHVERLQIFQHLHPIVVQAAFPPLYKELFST

`CCS(=O)(=O)c1ccc(CNC(=O)c2cc3c(s2)C2(CCN([C@H](C)c4cnc(C(F)(F)F)nc4)CC2)OC(C)(C)C3)nc1` [Example 5, N-{[5-(Ethylsulfonyl)pyridin-2-yl]methyl}-5′,5′-dimethyl-1-{(1R)-1-[2-(trifluoromethyl)pyrimidin-5-yl]ethyl}-4′,5′-dihydrospiro[piperidine-4,7′-thieno[2,3-c]pyran]-2′-carboxamide] gave a Ki [1] of over 12500 nM, a Ki [2] of 6.96 ± 3.89 nM and an IC50 [3] of 16.7 ± 20.3 nM. For the same compound, the EC50 (IL-17 secretion in PBMC) was 11 ± 7.67 nM and the EC50 (PBMC) was over 1000 nM.
Work on `CCS(=O)(=O)c1ccc(CNC(=O)c2cc3c(s2)C2(CCN(C(C)c4ccc(C#N)cc4)CC2)OC2(CC2)C3)cc1` (single isomer, unassigned; isomer 1) [Example 8, 1′-[1-(4-Cyanophenyl)ethyl]-5,5-spirocyclopropane-N-[(4-ethylsulfonylphenyl)methyl]spiro[4H-thieno[2,3-c]pyran-7,4′-piperidine]-2-carboxamide isomer 1] yielded a Ki [4] of over 20400 nM, a Ki [1] of over 12500 nM and a Ki [2] of 6 ± 1.81 nM. The IC50 [3] was 34.4 ± 6.01 nM, the EC50 (IL-17 secretion in PBMC) was 10.9 ± 6.44 nM and the EC50 (PBMC) was over 1000 nM.
Work on `CCS(=O)(=O)c1ccc(CNC(=O)c2cc3c(s2)C2(CCN([C@H](C)c4cnc(C(F)(F)F)nc4)CC2)OC2(CC2)C3)nc1` [Example 7, N-{[5-(Ethylsulfonyl)pyridin-2-yl]methyl}-1″-(1R)-1-[2-(trifluoromethyl)pyrimidin-5-yl]ethyl-4′H-dispiro[cyclopropane-1,5′-thieno[2,3-c]pyran-7′,4″-piperidine]-2′-carboxamide] yielded a Ki [1] of over 12500 nM, a Ki [2] of 6.4 ± 2.62 nM and an IC50 [3] of 22.3 ± 23.8 nM. The EC50 (IL-17 secretion in PBMC) was 14.6 ± 8.24 nM and the EC50 (PBMC) was over 1000 nM.
